Assay [1] has as its target T1, α1B-AR(A204V, S208A, L314M) (Homo sapiens, UniProt P35368, A204V/L314M/S208A).
T1 construct: gene ADRA1B
T1 sequence (P35368 1-520 A204V/S208A/L314M): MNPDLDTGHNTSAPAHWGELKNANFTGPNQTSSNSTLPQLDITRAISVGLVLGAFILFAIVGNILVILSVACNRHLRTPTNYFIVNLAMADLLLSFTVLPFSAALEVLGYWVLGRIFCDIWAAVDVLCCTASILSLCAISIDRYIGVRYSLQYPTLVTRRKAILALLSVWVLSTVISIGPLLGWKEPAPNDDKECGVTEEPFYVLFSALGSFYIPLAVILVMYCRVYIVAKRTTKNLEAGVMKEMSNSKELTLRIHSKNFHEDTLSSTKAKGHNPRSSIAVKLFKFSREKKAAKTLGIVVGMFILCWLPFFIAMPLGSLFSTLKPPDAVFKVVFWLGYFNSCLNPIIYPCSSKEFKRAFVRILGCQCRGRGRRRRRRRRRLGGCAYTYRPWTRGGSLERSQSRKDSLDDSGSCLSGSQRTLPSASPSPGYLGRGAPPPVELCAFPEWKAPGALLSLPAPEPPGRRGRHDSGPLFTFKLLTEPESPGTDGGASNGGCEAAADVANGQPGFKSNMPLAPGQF
Put plainly: Ca2+ imaging (GCaMP6f) in transfected HEK293T cells. The format is cell-based.

In assay [2] the target is T2, α1A-AR(V185A, A189S, M292L) (Homo sapiens, UniProt P35348, V185A/A189S/M292L).
T2 construct: gene ADRA1A
T2 sequence (P35348 whole entry V185A/A189S/M292L): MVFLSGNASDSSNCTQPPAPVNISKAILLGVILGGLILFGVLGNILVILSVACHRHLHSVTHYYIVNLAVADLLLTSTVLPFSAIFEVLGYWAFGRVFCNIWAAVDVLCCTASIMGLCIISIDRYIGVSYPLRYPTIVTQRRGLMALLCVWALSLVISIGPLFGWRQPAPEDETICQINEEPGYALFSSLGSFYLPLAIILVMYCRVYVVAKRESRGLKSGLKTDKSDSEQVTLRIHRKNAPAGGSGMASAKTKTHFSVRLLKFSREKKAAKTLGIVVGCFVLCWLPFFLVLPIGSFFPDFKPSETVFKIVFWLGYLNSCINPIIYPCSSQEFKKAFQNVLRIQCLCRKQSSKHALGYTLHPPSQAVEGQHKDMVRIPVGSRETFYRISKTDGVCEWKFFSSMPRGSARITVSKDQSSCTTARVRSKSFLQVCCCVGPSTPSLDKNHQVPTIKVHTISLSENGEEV

Broadly, the EC50 is the concentration at which the effect is half-maximal. In assay [1], `CS(=O)(=O)Nc1c(O)ccc2c1CCCC2C1=NCCN1` (centres unmarked) [A61603] showed an EC50 of around 10 nM.
In the case of `CNC[C@H](O)c1ccc(O)c(O)c1` [epinephrine], in assay [2], the “Ca2+ imaging (GCaMP6f) in transfected HEK293T cells, saturating concentration” value is on record as “This triple mutant was still functional in response to epinephrine”.

For the origin of these results see publication PMC10415349, “Structural basis of agonist specificity of α1A-adrenergic receptor” (Nature Communications, 2023).
